# Experiments:
# [1] = test system: high-risk patients diagnosed with primary osteoporosis; experiment: Femur (neck, proximal) bone density by DXA, Working Example 2; assay type: in vivo, human; settings: 200 units once a week; for Change in bone density (%): patients taking glucocorticoid
# Procedure: For the bone density of the femur, only the left side of the proximal part of the femur, rotated 20°, was measured at the start and every 24 weeks thereafter using dual-energy x-ray absorptiometry (DXA).
# [2] = in vivo
# Procedure: The Lumbar spine bone mineral density and occurrence of bone fractures were checked as bone assessments. For the Lumbar spine bone mineral density, the bone density of the second to fourth lumbar spine was measured at the start and every six months thereafter using dual-energy x-ray absorptiometry (DXA). For the frequency of bone fractures, x-rays were taken from the front and side of the fourth thoracic to the fifth lumbar spine at the start and every six months thereafter, and new vertebral fractures were assessed by comparison of the roentgen films at the start and at each point in time thereafter using the method of Genant et al. (Non-patent Reference 14) as a reference. In locations other than the vertebrae, fractures were evaluated by checking by roentgen films. Blood samples were also taken from all patients at the beginning and during administration, and the general laboratory test values, including the calcium concentration, were measured. The administration period in high-risk patients (DXA and new vertebral fractures were assessed collectively at the center; fractures of other than vertebrae were assessed by the investigator based on the roentgen films) was 85.1±20.8 weeks in the 5 unit group and 83.7±19.8 weeks in the 100 unit group. […] The administration period in low-risk patients was 72.7±19.4 weeks in the 5 unit group and 88.3±21.3 weeks in the 100 unit group.
# [3] = in vivo; remark: listed apart in the source
# Procedure: The serum calcium was measured at the start, after 12 weeks, after 24 weeks, after 48 weeks, and after 72 weeks. Serum calcium standard value: 8.4 to 10.4 mg/dL. The standard concomitant drug (610 mg of calcium, 400 IU of vitamin D3, and 30 mg of magnesium) was taken once a day after dinner from the time of consent to the end of the trial.
# [4] = in vivo; remark: listed apart in the source
# Source text: The incidence of adverse events was studied after administering the test drug to the a group of osteoporosis patients having normal renal function, a group of osteoporosis patients having mild renal dysfunction, and a group of osteoporosis patients having moderate renal dysfunction.
# [5] = in vivo; remark: listed apart in the source
substance,measurement,setting,value
teriparatide acetate,Percentage change in bone density (%),"[1]; Neck of femur, 24 W, history of Calcitriol",−0.60%
same,Percentage change in bone density (%),"[1]; Neck of femur, 24 W, history of Calcium L-aspartate",1.44%
same,Percentage change in bone density (%),"[1]; Neck of femur, 24 W, history of Calcium lactate",0.30%
same,Percentage change in bone density (%),"[1]; Neck of femur, 24 W, history of Elcatonin",1.62%
same,Percentage change in bone density (%),"[1]; Neck of femur, 24 W, history of Menatetrenone",0.72%
same,Percentage change in bone density (%),"[1]; Neck of femur, 24 W, history of Raloxifene hydrochloride",0.21%
same,Change in bone density (%),"[1]; Neck of femur, 24 W",2.53%
same,Percentage change in bone density (%),"[1]; Neck of femur, 48 W, history of Alfacalcidol",0.85%
same,Percentage change in bone density (%),"[1]; Neck of femur, 48 W, history of Calcitriol",−4.03%
same,Percentage change in bone density (%),"[1]; Neck of femur, 48 W, history of Calcium L-aspartate",1.88%
same,Percentage change in bone density (%),"[1]; Neck of femur, 48 W, history of Calcium lactate",−4.35%
same,Percentage change in bone density (%),"[1]; Neck of femur, 48 W, history of Elcatonin",0.72%
same,Percentage change in bone density (%),"[1]; Neck of femur, 48 W, history of Menatetrenone",−3.18%
same,Percentage change in bone density (%),"[1]; Neck of femur, 48 W, history of Raloxifene hydrochloride",1.03%
same,Change in bone density (%),"[1]; Neck of femur, 48 W",2.79%
same,Percentage change in bone density (%),"[1]; Neck of femur, 72 W, history of Alfacalcidol",2.19%
same,Percentage change in bone density (%),"[1]; Neck of femur, 72 W, history of Calcitriol",−3.53%
same,Percentage change in bone density (%),"[1]; Neck of femur, 72 W, history of Calcium L-aspartate",4.17%
same,Percentage change in bone density (%),"[1]; Neck of femur, 72 W, history of Calcium lactate",−2.53%
same,Percentage change in bone density (%),"[1]; Neck of femur, 72 W, history of Elcatonin",3.15%
same,Percentage change in bone density (%),"[1]; Neck of femur, 72 W, history of Menatetrenone",−0.78%
same,Percentage change in bone density (%),"[1]; Neck of femur, 72 W, history of Raloxifene hydrochloride",−0.51%
same,Change in bone density (%),"[1]; Neck of femur, 72 W",2.44%
same,Percentage change in bone density (%),"[1]; Proximal femur, 24 W, history of Alfacalcidol",2.77%
same,Percentage change in bone density (%),"[1]; Proximal femur, 24 W, history of Calcitriol",−1.40%
same,Percentage change in bone density (%),"[1]; Proximal femur, 24 W, history of Calcium L-aspartate",1.76%
same,Percentage change in bone density (%),"[1]; Proximal femur, 24 W, history of Calcium lactate",1.78%
same,Percentage change in bone density (%),"[1]; Proximal femur, 24 W, history of Elcatonin",3.86%
same,Percentage change in bone density (%),"[1]; Proximal femur, 24 W, history of Menatetrenone",0.60%
same,Percentage change in bone density (%),"[1]; Proximal femur, 24 W, history of Raloxifene hydrochloride",2.44%
same,Change in bone density (%),"[1]; Proximal femur, 24 W",2.46%
same,Percentage change in bone density (%),"[1]; Proximal femur, 48 W, history of Alfacalcidol",2.31%
same,Percentage change in bone density (%),"[1]; Proximal femur, 48 W, history of Calcitriol",−1.05%
same,Percentage change in bone density (%),"[1]; Proximal femur, 48 W, history of Calcium L-aspartate",2.28%
same,Percentage change in bone density (%),"[1]; Proximal femur, 48 W, history of Calcium lactate",−1.68%
same,Percentage change in bone density (%),"[1]; Proximal femur, 48 W, history of Elcatonin",3.44%
same,Percentage change in bone density (%),"[1]; Proximal femur, 48 W, history of Menatetrenone",−0.56%
same,Percentage change in bone density (%),"[1]; Proximal femur, 48 W, history of Raloxifene hydrochloride",2.26%
same,Change in bone density (%),"[1]; Proximal femur, 48 W",3.39%
same,Percentage change in bone density (%),"[1]; Proximal femur, 72 W, history of Alfacalcidol",2.31%
same,Percentage change in bone density (%),"[1]; Proximal femur, 72 W, history of Calcitriol",−0.04%
same,Percentage change in bone density (%),"[1]; Proximal femur, 72 W, history of Calcium L-aspartate",3.69%
same,Percentage change in bone density (%),"[1]; Proximal femur, 72 W, history of Calcium lactate",−3.20%
same,Percentage change in bone density (%),"[1]; Proximal femur, 72 W, history of Elcatonin",4.41%
same,Percentage change in bone density (%),"[1]; Proximal femur, 72 W, history of Menatetrenone",−1.40%
same,Percentage change in bone density (%),"[1]; Proximal femur, 72 W, history of Raloxifene hydrochloride",3.03%
same,Change in bone density (%),"[1]; Proximal femur, 72 W",3.06%
same,Hypercalcemia,[2],did not cause hypercalcemia at either dose
same,Tendency for the serum calcium to rise,[2],no tendency for the serum calcium to rise was seen
same,"Corrected serum calcium, Max",[3],10.0 mg/dL
same,Manifestation of hypercalcemia or hypercalciuria,[3],No manifestation of hypercalcemia or hypercalciuria was found
same,Patients with serum calcium exceeding 11.0 mg/mL,[3],not even one patient
same,Safety in terms of the serum calcium across renal function groups,[3],equivalent safety in terms of the serum calcium in all groups
same,Adverse events: No (%),[4],4.4%
same,"Adverse events: No, No. of cases",[4],2
same,Adverse events: Point estimate of the difference,[4],2.0
same,"Adverse events: Yes, No. of cases",[4],65
same,"Side effects: No, No. of cases",[5],27
same,"Side effects: Yes, No. of cases",[5],22

# Reference: patent US20140249084A1, “PTH-CONTAINING THERAPEUTIC/PROPHYLACTIC AGENT FOR OSTEOPOROSIS, CHARACTERIZED IN THAT PTH IS ADMINISTERED ONCE A WEEK IN A UNIT DOSE OF 100 TO 200 UNITS” (ASAHI KASEI PHARMA CORPORATION, priority 2009, published 2014)
